# Measured values reported in patent US20240317735A1, “HYDROISOQUINOLINE OR HYDRONAPHTHYRIDINE COMPOUNDS FOR THE TREATMENT OF AUTOIMMUNE DISEASE” (Hoffmann-La Roche Inc., priority 2020, published 2024).
# Biological target: T1, human TLR7 (Homo sapiens, UniProt Q9NYK1)
# T1 construct: host or cells: HEK293 (HEK-Blue hTLR7)
# T1 sequence (Q9NYK1 27-1049): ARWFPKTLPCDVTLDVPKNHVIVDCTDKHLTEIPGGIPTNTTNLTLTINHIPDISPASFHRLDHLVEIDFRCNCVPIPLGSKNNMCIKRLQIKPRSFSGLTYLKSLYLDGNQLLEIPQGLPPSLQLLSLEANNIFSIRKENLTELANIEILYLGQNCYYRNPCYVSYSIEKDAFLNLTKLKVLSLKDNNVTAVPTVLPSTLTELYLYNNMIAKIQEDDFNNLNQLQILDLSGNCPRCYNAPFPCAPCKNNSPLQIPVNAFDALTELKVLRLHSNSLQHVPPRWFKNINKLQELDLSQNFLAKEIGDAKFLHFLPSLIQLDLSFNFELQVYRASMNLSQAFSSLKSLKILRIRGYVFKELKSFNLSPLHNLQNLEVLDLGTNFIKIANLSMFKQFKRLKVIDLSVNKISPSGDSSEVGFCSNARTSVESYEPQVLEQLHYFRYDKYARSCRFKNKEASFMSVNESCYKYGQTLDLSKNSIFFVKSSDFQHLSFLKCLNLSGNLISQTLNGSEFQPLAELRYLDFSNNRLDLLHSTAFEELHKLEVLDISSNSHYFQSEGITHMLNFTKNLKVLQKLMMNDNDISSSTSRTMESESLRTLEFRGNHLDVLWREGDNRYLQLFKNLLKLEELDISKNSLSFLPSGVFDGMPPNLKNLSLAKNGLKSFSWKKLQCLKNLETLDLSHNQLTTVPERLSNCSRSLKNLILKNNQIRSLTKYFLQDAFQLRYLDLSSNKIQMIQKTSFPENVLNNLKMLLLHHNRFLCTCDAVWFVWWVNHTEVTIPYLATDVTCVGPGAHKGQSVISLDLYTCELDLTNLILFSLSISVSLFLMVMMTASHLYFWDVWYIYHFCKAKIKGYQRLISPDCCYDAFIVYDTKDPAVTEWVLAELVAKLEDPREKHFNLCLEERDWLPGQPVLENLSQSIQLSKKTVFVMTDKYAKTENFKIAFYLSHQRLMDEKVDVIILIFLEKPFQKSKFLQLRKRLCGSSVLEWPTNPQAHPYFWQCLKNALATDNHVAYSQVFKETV
# Assay: HEK293-Blue-hTLR-7 cells assay (SEAP reporter, R848 stimulation)
# Format: cell-based
# Conditions: HEK293-Blue-hTLR7 cells, R848, 20 hrs; read-out: HEK/hTLR7 IC50
# Description: The following tests were carried out in order to determine the activity of the compounds of formula (I) and (Ia) in HEK293-Blue-hTLR-7/8/9 cells assay.
# A stable HEK293-Blue-hTLR-7 cell line was purchased from InvivoGen (Cat. #: hkb-htlr7, San Diego, California, USA). These cells were originally designed for studying the stimulation of human TLR7 by monitoring the activation of NF-κB. A SEAP (secreted embryonic alkaline phosphatase) reporter gene was placed under the control of the IFN-β minimal promoter fused to five NF-κB and AP-1-binding sites. The SEAP was induced by activating NF-κB and AP-1 via stimulating HEK-Blue hTLR7 cells with TLR7 ligands. Therefore the reporter expression w % as declined by TLR7 antagonist under the stimulation of a ligand, such as R848 (Resiquimod), for incubation of 20 hrs. The cell culture supernatant SEAP reporter activity was determined using QUANTI-Blue™ kit (Cat. #: rep-qb1, Invivogen, San Diego, Ca, USA) at a wavelength of 640 nm, a detection medium that turns purple or blue in the presence of alkaline phosphatase.
# HEK293-Blue-hTLR7 cells were incubated at a density of 250,000˜450,000 cells/mL in a volume of 170 μL in a 96-well plate in Dulbecco's Modified Eagle's medium (DMEM) containing 4.5 g/L glucose, 50 U/mL penicillin, […], […] Normocin, 2 mM L-glutamine, 10% (v/v) heat-inactivated fetal bovine serum with addition of 20 μL test compound in a serial dilution in the presence of final DMSO at 1% and 10 μL of 20 uM R848 in above DMEM, perform incubation under 37° C. in a C02 incubator for 20 hrs. Then 20 μL of the supernatant from each well was incubated with 180 μL Quanti-blue substrate solution at 37° C. for 2 hrs and the absorbance was read at 620˜655 nm using a spectrophotometer. The signaling pathway that TLR7 activation leads to downstream NF-κB activation has been widely accepted, and therefore similar reporter assay was modified for evaluating TLR7 antagonist.
row,Compound,IC50
1,"Cc1cc(N2Cc3ccc(N4CCOC5(CNC5)C4)nc3[C@@H](C)C2)c2cnn(C)c2n1 [Example 70, 8-[(8S)-6-(1,6-dimethylpyrazolo[3,4-b]pyridin-4-yl)-8-methyl-7,8-dihydro-5H-1,6-naphthyridin-2-yl]-5-oxa-2,8-diazaspiro[3.5]nonane]",36 nM
2,"CO[C@@H]1CN(c2ccc3c(n2)[C@@H](C)CN(c2cc(C)nc4c2cnn4C)C3)C[C@H]1N [Example 63, (3R,4R)-4-methoxy-1-[(8S)-6-(1,6-dimethylpyrazolo[3,4-b]pyridin-4-yl)-8-methyl-7,8-dihydro-5H-1,6-naphthyridin-2-yl]pyrrolidin-3-amine]",5 nM
3,"Cc1cc(N2Cc3ccc(N4CCC(C)(N)CC4)nc3[C@@H](C)C2)c2cnn(C)c2n1 [Example 59, 4-methyl-1-[(8S)-6-(1,6-dimethylpyrazolo[3,4-b]pyridin-4-yl)-8-methyl-7,8-dihydro-5H-1,6-naphthyridin-2-yl]piperidin-4-amine]",2 nM
4,"Cn1ncc2c(N3Cc4ccc(N5CCC6(CCNCC6)CC5)cc4C(C)(C)C3)ccnc21 [Example 6, 3-[4,4-dimethyl-2-(1-methylpyrazolo[3,4-b]pyridin-4-yl)-1,3-dihydroisoquinolin-6-yl]-3,9-diazaspiro[5.5]undecane]",26 nM
5,"C[C@H]1CN(c2ccnc3c2cnn3C)Cc2ccc(OC[C@@H]3CNCCN3C=O)cc21 [Example 45, (2S)-2-[[(4R)-4-methyl-2-(1-methylpyrazolo[3,4-b]pyridin-4-yl)-3,4-dihydro-1H-isoquinolin-6-yl]oxymethyl]piperazine-1-carbaldehyde]",12 nM
6,"COC[C@H]1CN(c2cc3c(cn2)CN(c2cc(C)nc4c2cnn4C)C[C@@H]3C)CCN1 [Example 81, (4R)-2-(1,6-dimethylpyrazolo[3,4-b]pyridin-4-yl)-4-methyl-6-[(3R)-3-(methoxymethyl)piperazin-1-yl]-3,4-dihydro-1H-2,7-naphthyridine]",41 nM
7,"Cc1cc(N2Cc3ccc(N4CCN(C)CC4)nc3[C@@H](C)C2)c2cnn(C)c2n1 [Example 67, (8S)-6-(1,6-dimethylpyrazolo[3,4-b]pyridin-4-yl)-8-methyl-2-(4-methylpiperazin-1-yl)-7,8-dihydro-5H-1,6-naphthyridine]",11 nM
8,"Cc1cc(N2Cc3ccc(OC[C@@H]4CNCCN4)cc3[C@@H](C)C2)c2cnn(C)c2n1 [Example 31, (4R)-2-(1,6-dimethylpyrazolo[3,4-b]pyridin-4-yl)-4-methyl-6-[[(2S)-piperazin-2-yl]methoxy]-3,4-dihydro-1H-isoquinoline]",24 nM
9,"Cc1cc(N2Cc3ccc(N4CCC(O)(CN(C)C)CC4)nc3[C@@H](C)C2)c2cnn(C)c2n1 [Example 61, 4-[(dimethylamino)methyl]-1-[(8S)-6-(1,6-dimethylpyrazolo[3,4-b]pyridin-4-yl)-8-methyl-7,8-dihydro-5H-1,6-naphthyridin-2-yl]piperidin-4-ol]",3 nM
10,"Cc1cc(N2Cc3cnc(N4CC[C@@H](N)[C@H](F)C4)cc3[C@@H](C)C2)c2cnn(C)c2n1 [Example 80, (3R,4R)-3-fluoro-1-[(5R)-7-(1,6-dimethylpyrazolo[3,4-b]pyridin-4-yl)-5-methyl-6,8-dihydro-5H-2,7-naphthyridin-3-yl]piperidin-4-amine]",12 nM
11,"Cc1cc(N2Cc3ccc(N4C[C@@H](F)[C@@H](N)C4)nc3[C@@H](C)C2)c2cnn(C)c2n1 [Example 69, (3S,4R)-4-fluoro-1-[(8S)-6-(1,6-dimethylpyrazolo[3,4-b]pyridin-4-yl)-8-methyl-7,8-dihydro-5H-1,6-naphthyridin-2-yl]pyrrolidin-3-amine]",30 nM
12,"C[C@H]1CN(c2ccnc3c2cnn3C)Cc2ccc(N3CC4(CNC4)CC3=O)cc21 [Example 34, 6-[(4R)-4-methyl-2-(1-methylpyrazolo[3,4-b]pyridin-4-yl)-3,4-dihydro-1H-isoquinolin-6-yl]-2,6-diazaspiro[3.4]octan-7-one]",26 nM
13,"C[C@H]1CN(c2ccnc3c2cnn3C)Cc2ccc(N3CCN(c4cc5c(cn4)CCNC5)CC3)cc21 [Example 9, 7-[4-[(4R)-4-methyl-2-(1-methylpyrazolo[3,4-b]pyridin-4-yl)-3,4-dihydro-1H-isoquinolin-6-yl]piperazin-1-yl]-1,2,3,4-tetrahydro-2,6-naphthyridine]",7 nM
14,"Cc1cc(N2Cc3ccc(N4CCNCC4)nc3[C@@H](C)C2)c2cnn(C)c2n1 [Example 66, (8S)-6-(1,6-dimethylpyrazolo[3,4-b]pyridin-4-yl)-8-methyl-2-piperazin-1-yl-7,8-dihydro-5H-1,6-naphthyridine]",8 nM
15,"Cc1cc(N2Cc3ccc(N4CCC(N(C)C)CC4)nc3[C@@H](C)C2)c2cnn(C)c2n1 [Example 60, N,N-dimethyl-1-[(8S)-6-(1,6-dimethylpyrazolo[3,4-b]pyridin-4-yl)-8-methyl-7,8-dihydro-5H-1,6-naphthyridin-2-yl]piperidin-4-amine]",3 nM
16,"CO[C@H]1CN(c2ccc3c(n2)[C@@H](C)CN(c2cc(C)nc4c2cnn4C)C3)CC[C@@H]1N [Example 65, (3S,4S)-3-methoxy-1-[(8S)-6-(1,6-dimethylpyrazolo[3,4-b]pyridin-4-yl)-8-methyl-7,8-dihydro-5H-1,6-naphthyridin-2-yl]piperidin-4-amine]",6 nM
17,"C[C@H]1CN(c2ccnc3c2cnn3C)Cc2ccc(N3C[C@@H]4CCNC[C@@H]4C3=O)cc21 (single isomer, unassigned) [Example 57]",8 nM
18,"Cc1cc(N2Cc3cnc(O[C@@H]4C[C@H]5CNCCN5C4)cc3[C@@H](C)C2)c2cnn(C)c2n1 [Example 76, (4R)-2-(1,6-dimethylpyrazolo[3,4-b]pyridin-4-yl)-4-methyl-6-[[(7R,8aS)-1,2,3,4,6,7,8,8a-octahydropyrrolo[1,2-a]pyrazin-7-yl]oxy]-3,4-dihydro-1H-2,7-naphthyridine]",19 nM
19,"Cc1cc(N2Cc3ccc(N4CCC5(CCNCC5)CC4)cc3C(C)C2)c2cnn(C)c2n1 (stereo not shown) [Example 5, 3-[2-(1,6-dimethylpyrazolo[3,4-b]pyridin-4-yl)-4-methyl-3,4-dihydro-1H-isoquinolin-6-yl]-3,9-diazaspiro[5.5]undecane]",3 nM
20,"Cc1cc(N2Cc3cnc(N4CC5(CNCCO5)C4)cc3[C@@H](C)C2)c2cnn(C)c2n1 [Example 79, 2-[(5R)-7-(1,6-dimethylpyrazolo[3,4-b]pyridin-4-yl)-5-methyl-6,8-dihydro-5H-2,7-naphthyridin-3-yl]-5-oxa-2,8-diazaspiro[3.5]nonane]",19 nM
21,"CC1CN(c2ccc3c(c2)[C@@H](C)CN(c2ccnc4c2cnn4C)C3)CCN1 (stereo partly drawn) [Example 15, (4R)-4-methyl-6-(3-methylpiperazin-1-yl)-2-(1-methylpyrazolo[3,4-b]pyridin-4-yl)-3,4-dihydro-1H-isoquinoline]",4 nM
22,"C[C@H]1CN(c2ccnc3c2cnn3C)Cc2ccc(N3CCN(CCN(C)C)CC3)cc21 [Example 38, N,N-dimethyl-2-[4-[(4R)-4-methyl-2-(1-methylpyrazolo[3,4-b]pyridin-4-yl)-3,4-dihydro-1H-isoquinolin-6-yl]piperazin-1-yl]ethanamine]",3 nM
